ChEMBL document CHEMBL1130933, “Structure-based design of N-[2-(1-piperidinylethyl)]-N'-[2-(5-bromopyridyl)]-thiourea and N-[2-(1-piperazinylethyl)]-N'-[2-(5-bromopyridyl)]-thiourea as potent non-nucleoside inhibitors of HIV-1 reverse transcriptase” (Bioorg Med Chem Lett, 1998)

What was measured:
Format in all cases: functional
[1] = Inhibitory effect on p24 production in HIV-infected peripheral blood mononuclear cells.; conditions: Homo sapiens
[2] = Selective index was evaluated from inhibitory concentrations of compound
[3] = Compound was evaluated for cellular proliferation (on viability of peripheral blood mononuclear cells) using microculture tetrazolium assay (MTA).; conditions: Homo sapiens

IC50 [1] | Structure (SMILES) | Selectivity index [2] | IC50 [3]
2 nM | S=C(NCCN1CCNCC1)Nc1ccc(Br)cn1 | > 50000 | > 100000 nM
7 nM | S=C(NCCc1ccccn1)Nc1ccc(Br)cn1 [TROVIRDINE] | > 10000 | > 100000 nM
< 1 nM | S=C(NCCN1CCCCC1)Nc1ccc(Br)cn1 | > 100000 | > 100000 nM

Structure (SMILES) | IC50 [1] | Selectivity index [2] | IC50 [3]
Cc1cn([C@H]2C[C@H](N=[N+]=[N-])[C@@H](CO)O2)c(=O)[nH]c1=O [ZIDOVUDINE] | 6 nM | – | 50000 nM
